Data as given in a melting point compilation (Tetko et al.; mined from patent text by program, amines drawn as free bases though some values may be those of a salt).

melting point [°C] | SMILES
68 to 69 | c1ccc(COc2ccc(CCCCn3cncn3)cc2)cc1
100 to 103 | CCCc1nc2c(N)nc3cc(CCc4cccnc4)ccc3c2n1NC(C)C
198 | COc1cccc(C2CSc3ccccc3NC2=O)c1 (stereo not given)
237 to 240 | Clc1ccc(Nc2nc3ccccc3c3[nH]c(C4CCCCC4)nc23)cc1Cl
92 to 96 | CCCn1c(=O)c(C(=O)OCC)c(N2CCN(C(=O)c3cccs3)CC2)c2cccnc21
55 | COC(=O)C(O)c1ccc(Cl)cc1 (stereo not given)
129 to 130 | O=C(O)CCc1oc(SCc2cccnc2)nc1-c1ccc(Cl)cc1
120 to 121 | Oc1ccccc1-c1ccccc1P(c1cc(C(F)(F)F)cc(C(F)(F)F)c1)c1cc(C(F)(F)F)cc(C(F)(F)F)c1
104 to 106 | CCCCCc1ccc(C(=O)CCCC(=O)O)cc1
84 to 86 | CCCCCCNC(=O)OC1CCN(C(=O)OCCCCCCNC(=O)Oc2ccc(Oc3ccccc3)cc2)CC1
110 to 113 | CC(=O)C(=C1NCCCS1)[N+](=O)[O-]
130 to 131 | Cc1nc(NCCSCc2csc(CN(C)C)n2)[nH]c(=O)c1Cc1cccnc1
66.7 | Cc1ccc(S(=O)(=O)N2CCCC(CSc3ccccc3)C2)cc1 (stereo not given)
206 to 208 | C#CC[C@@H](N)c1nc2cccnc2c(=O)n1Nc1ccccc1
112 to 114 | CC=CC(=O)NCc1ccccc1
77 to 78 | CCOc1ccc2[nH]c(C)cc2c1O
210 | Nc1ccc2ccc(Oc3ccc(F)cc3)nc2n1
131 | COC(=O)C=CC(=O)Nc1ccc(Cl)cc1C(=O)NC(C)C1CC1 (stereo not given)
178 to 180 | Cc1cccc(-c2nc3cccnn3c2-c2ccnc(NC(=O)c3ccccc3)c2)c1
190 | Cn1ncnc1COc1nc2c(-c3c(F)cccc3F)nncn2c1-c1ccccc1
201 to 204 | CCOCc1nc2c(N)nc3cc(Br)ccc3c2s1
132 | Cc1cnc(CCCC#N)c(O)c1
289 to 292 | CC1(N2Cc3c(N)cccc3C2=O)CCC(=O)NC1=O (stereo not given)
213 | CCN1CCCC1CNC(=O)c1c(Br)c(Br)c([N+](=O)[O-])c2c1OCCO2 (stereo not given)
98 to 100 | CC1OC(Sc2ccccc2)C(OCc2ccccc2)C(OC(=O)c2ccccc2)C1OC(=O)c1ccccc1 (stereo not given)

melting point [°C] | SMILES
163 to 165 | CCCNC(=O)C1(CCCCP(=O)(c2ccccc2)c2ccccc2)c2ccccc2-c2ccccc21
78 to 80 | O=C1CCCN1CCCNc1cc(C(c2cc(F)ccc2F)S(=O)(=O)c2ccc(Cl)cc2)c(Cl)cn1 (stereo not given)
65 | Clc1cnc(Sc2cccs2)nc1
220 to 222 | COn1c(C2CCCCC2)nc2c(N)nc3ccccc3c21
138 to 140 | CN(C1CCCc2ccc([N+](=O)[O-])cc21)S(C)(=O)=O (stereo not given)
172 | O=C(O)C=CC(=O)Nc1n[nH]c2ccc(Br)cc12
209 to 210 | CC(C)(CC(=O)Nc1cccc(OCc2ccc3ccc(F)cc3n2)c1)C(=O)O
109 to 113 | COc1ccc(-c2nnc(C)nc2-c2ccc(OC)cc2)cc1
231 to 235 | NNc1ncc(-c2ccc(F)cc2)nn1
209 to 211 | FC(F)(F)c1cc2[nH]c(N3CCN(c4ncccc4Cl)CC3)nc2cc1Cl
265 to 267 | Cn1cc(-c2ccccc2)c(=O)c(-c2cccc(C(=O)O)c2)c1
220 to 221 | CC1(C)CC(=O)C2=C(C1)NC1=C(C(=O)CC(C)(C)C1)C2c1cccc(Oc2ncccn2)c1
78 to 80 | CC(C)CCCC(C)C1CCC2C3CC=C4CC(NCCCNC(=O)CCCCCNc5ccc([N+](=O)[O-])c6nonc56)CCC4(C)C3CCC12C (stereo not given)
184 | CC(=O)Nc1cccc(-n2ncc(=O)n(Cc3ccc(Cl)cc3F)c2=O)c1
247 to 250 | CCc1cnc(N2CCC(c3nc4cc(-c5ccc(S(C)(=O)=O)cc5F)ccc4o3)CC2)nc1
143 | c1ccc(Cn2c(NC3CCN(C4CCCCC4)CC3)nc3ccccc32)cc1
118 | O=S(=O)(c1ccccc1)c1n[nH]c2ccccc12
140 | O=C(c1ccc2c(c1)C(=O)N1CCC[C@H]1CO2)N1CCCCC1
113 to 115 | COC(=O)CCCC#Cc1cc(Cl)ccc1NS(=O)(=O)c1ccc2c(c1)C(C)(C)CCC2(C)C
93 | Cc1c(C)c2c(c(C)c1C=O)OC(C)(C)C2
70 to 75 | C[C@H](O)[C@@H](CCc1cccc(Cl)c1Cl)n1cnc(C(N)=O)c1
63 to 65 | COC(=O)COc1ccc(C(=O)C(C)Br)cc1Cl (stereo not given)
275 to 279 | Cc1ccc(Cl)c(NS(=O)(=O)C2(NC=O)N=CN=N2)c1Cl (stereo not given)
274 | Cc1oc(-c2ccc(S(C)(=O)=O)cc2)c(Oc2ccc(Cl)cc2)c(=O)c1Cl
116 to 119 | O=C(NC(CCl)CCOc1ccc(Br)cc1)c1c(F)cccc1F (stereo not given)

melting point [°C] | SMILES
294 to 297 | O=c1[nH]ncc2[nH]c(-c3ccc(OC(F)F)c(OC4CC4)c3)c(-c3cn[nH]c3)c12
81 to 83 | CCCCc1cn(-c2ccccc2Cl)c(=O)n1Cc1ccc(-c2ccccc2-c2nnn[nH]2)nc1
118 to 119 | COc1ccc(-c2coc3ccc(-c4nnc(SCc5cccc(OC)c5)o4)cc23)cc1
275 to 276 | CC(=O)Nc1ccc2c(c1)Cc1c(-c3ccccc3)n[nH]c1-2
282 | NS(=O)(=O)c1ccc(-c2cc(-c3nc(-c4ccc(F)cc4)cc(C(F)(F)F)n3)ccn2)s1
216 | CS(=O)(=O)c1cc(C(=O)O)cc(NCc2ccco2)c1Cl
94 to 95 | C=CC(=O)NCCOC(C)(C)OCCNC(=O)C=C
252 | O=C(N[C@H]1CC[C@H](CCN2CCN(c3nccc4c3OCC4)CC2)CC1)c1ccc(Cl)cc1
110 to 111 | Cc1c(NC(=O)c2ccc(OC[C@H]3CCCO3)cc2)ccc2cc(CNCC(C)(C)C)cnc12
250 to 252 | NC(=O)Nc1ccc2c(c1)C(=O)C1(CC1)O2
88 | CC(C)CC(NC1OC(=O)C2C3C=CC(C3)C12)C(=O)OCc1ccccc1 (stereo not given)
88 to 90 | COC(=O)C(Cc1ccccc1)Oc1ccc2cc(-c3cnc(Cc4ccccc4)o3)ccc2c1 (stereo not given)
167 to 168 | COc1nc(N2CCOCC2)cnc1NS(=O)(=O)c1cccc(Cl)c1Cl
176 to 177 | O=C(O)C(=O)c1ccc(OCCOc2cc3ccccc3cc2OCCOc2ccccc2)cc1
228 | COC(=O)c1ncc(-c2ccccc2)nc1N
203 to 204 | CS(=O)(=O)c1ccc(-c2cnn(-c3ccc(F)cc3)c(=O)c2S(=O)(=O)c2ccccc2)cc1
80 to 92 | CCCCc1nc(CC(NC(C)=O)(C(=O)OCC)C(=O)OCC)c[nH]1
226 to 228 | O=P(O)(O)C(O)(Cc1c(Cl)cccc1Cl)P(=O)(O)O
90 to 91 | COc1ccc(C(=O)c2ccccc2C=O)cc1
72 to 75 | N=C(NO)c1nn(-c2c(Cl)cc(C(F)(F)F)cc2Cl)c(C=O)c1SC(F)(F)F
104 to 105 | O=C1CC(O)CC(CCc2c(Cl)cc(Cl)cc2OCc2ccc(C(F)(F)F)cc2)O1 (stereo not given)
44 to 47 | CC(=O)OCCC1CC(=O)N1 (stereo not given)
80 to 81 | C=C(C)N(c1c(C)cccc1C)S(C)(=O)=O
124 | CC(=O)Nc1cccc2c1C(=O)OC2(C)C
47 to 49 | CCCCOc1ccc([N+](=O)[O-])c(CO)c1

melting point [°C] | SMILES
151 to 152 | CCCCCCCCCCC(O)C[N+]1([O-])CCOCC1 (stereo not given)
165 | O=c1[nH]c(=O)n(C2CC(OCc3ccccc3)C(COCc3ccccc3)C2O)cc1I (stereo not given)
271 to 273 | CCCCn1cc(C(=O)O)c(=O)c2oc3ccc(Cl)cc3c(=O)c21
110 to 112 | CNC(=S)NCCCCc1nc[nH]c1C
203 to 205 | O=C(NCc1ccc(Cl)cc1)c1cn2c3c(cc(CN4CCOCC4)cc3c1=O)CN(Cc1ccccc1)C2
63 to 65 | CCC(OC)c1oc(C)cc(=O)c1OCc1ccccc1 (stereo not given)
177 to 180 | CC(C)N1CC(=O)N(C(C)C)CC1=O
182 | CCn1ncnc1COc1nn2c(-c3c(F)cccc3F)nnc2cc1C(C)(C)C
271 | C#CCn1c(=O)c2c(nc(C#Cc3cccc(O)c3)n2C)n(C)c1=O
200 to 201 | CC(=O)Nc1ccc(S(=O)(=O)NC(C)(C)C)cc1
312 to 315 | CCCCc1nc2cc(Cl)cc(C(=O)O)c2n1C(C)c1ccc(C(=O)O)cc1 (stereo not given)
111 to 117 | COc1ccc(C(=O)Cc2ccncc2)c2c1OCC2C (stereo not given)
257 to 258 | O=C(Nc1cccc(Cl)c1)C1=Cc2ccccc2S1=O (stereo not given)
77 to 81 | CN(C)CCCOc1cccc(N(C(=O)c2ccccc2)c2ccccc2)c1
103 to 109 | CCCNC(=O)C(C)Cc1ccc2c(c1)c(Cc1ccc(C(=O)O)cc1OC)cn2C(C)C (stereo not given)
62 to 63 | COC(=O)C[C@@H](CC(=O)C=Cc1c(-c2ccc(F)cc2)c(-c2ccccc2)c(C(=O)NCc2ccc(F)cc2)n1C(C)C)O[Si](C)(C)C(C)(C)C
203 to 205 | COc1cc2c(cc1Br)-c1c(Cl)c3c(n1CC2)C(=O)N(C(C)(C)C)CCCC3
184 to 185 | CCCCNc1cc(C(=O)O)cc(S(=O)(=O)NCCCC)c1Oc1ccccc1
82 to 83.5 | CCOC(=O)C(=CNc1nc(C)c(C)s1)C(=O)OCC
88 to 93 | COC(=O)CCc1cc2cc(Cl)ccc2n1S(=O)(=O)c1cccc2ccccc12
295 | O=C1NC(c2ccccc2)=C2C(=O)OC(c3ccc(Br)cc3)=C12
149 to 150 | CCOC(=O)c1ccc(NC(=O)C=C(C)c2ccc(Cl)c(Cl)c2)cc1

SMILES | melting point [°C]
COCC(=O)C1CCC2C3CCC4CC(O)CCC4(C)C3CCC12C (stereo not given) | 163 to 164
N#Cc1ncn2c1[C@@H]1CCN1C(=O)c1c-2cccc1C(F)(F)F | 115 to 119
N#Cc1ccc([N+](=O)[O-])cc1[N+](=O)[O-] | 88 to 92
